Broadly, the IC50 is the concentration that inhibits the measured activity by half.

In patent US20250019387A1 (Frontier Medicines Corporation, priority 0001, published 2025) one finds IC50 data, which are given here for 17 compounds.

Sequence of KRAS G12C and cRAF (Ras-binding domain) interaction (P01116 other isoform, or with tags, fused parts or gaps G12C/C51S/C80L/C118S): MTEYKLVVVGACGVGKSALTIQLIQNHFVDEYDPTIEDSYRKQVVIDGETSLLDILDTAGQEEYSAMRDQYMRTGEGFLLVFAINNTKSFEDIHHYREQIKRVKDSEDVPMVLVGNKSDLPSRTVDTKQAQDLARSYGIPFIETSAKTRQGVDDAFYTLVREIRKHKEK

This assay concerns the target KRAS G12C and cRAF (Ras-binding domain) interaction (Homo sapiens (Human), UniProt P01116, C118S/C51S/C80L/G12C). The experiment in a line: Inhibition of KRAS G12C and cRAF binding (AlphaScreen). Particulars: GMPPNP-loaded KRAS G12C, 19-20 hours incubation with compound; read-out: IC50 (Inhibition of KRAS G12C and cRAF Binding). The method, boiled down: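 IC50 values come from 4-parameter nonlinear regression of AlphaScreen signal (680 nm excitation, 570 nm emission). Compound plates sat 19-20 h at room temperature before RBD and donor/acceptor beads were added in Hepes pH 7.4 buffer with 150 mM NaCl, 5 mM MgCl2, 2% DMSO for 60-90 min; biotin-AviTag-GST replaced RBD to flag assay-technology interferers.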
Regarding `Cc1nccc(/C=C/C(=O)N2CC[C@@H](N(C)c3nc(OC[C@@]45CCCN4C[C@H](F)C5)nc4c(F)c(-c5cccc6ccc(F)c(Cl)c56)ncc34)C2)n1` [Example 270, (E)-1-((R)-3-((7-(8-chloro-7-fluoronaphthalen-1-yl)-8-fluoro-2-(((2R,7aS)-2-fluorotetrahydro-1H-pyrrolizin-7a(5H)-yl)methoxy)pyrido[4,3-d]pyrimidin-4-yl)(methyl)amino)pyrrolidin-1-yl)-3-(2-methylpyrimidin-4-yl)prop-2-en-1-one], the IC50 lay within 10 to 100 nM.
The same measure for `Cc1nccc(/C=C/C(=O)N2CC[C@@H](N(C)c3nc(OC[C@@]45CCCN4C[C@H](F)C5)nc4c(F)c(-c5cccc6ccc(F)c(F)c56)ncc34)C2)n1` [Example 271, (E)-1-((R)-3-((7-(7,8-difluoronaphthalen-1-yl)-8-fluoro-2-(((2R,7aS)-2-fluorotetrahydro-1H-pyrrolizin-7a(5H)-yl)methoxy)pyrido[4,3-d]pyrimidin-4-yl)(methyl)amino)pyrrolidin-1-yl)-3-(2-methylpyrimidin-4-yl)prop-2-en-1-one]: 10 to 100 nM; for `Cc1cc(/C=C/C(=O)N2CC[C@@H](N(C)c3nc(OC[C@@]45CCCN4C[C@H](F)C5)nc4c(F)c(-c5cccc6ccc(F)c(Cl)c56)ncc34)C2)nc(C)n1` [Example 272, (E)-1-((R)-3-((7-(8-chloro-7-fluoronaphthalen-1-yl)-8-fluoro-2-(((2R,7aS)-2-fluorotetrahydro-1H-pyrrolizin-7a(5H)-yl)methoxy)pyrido[4,3-d]pyrimidin-4-yl)(methyl)amino)pyrrolidin-1-yl)-3-(2,6-dimethylpyrimidin-4-yl)prop-2-en-1-one]: 10 to 100 nM.
Turning to `Cc1cc(/C=C/C(=O)N2CC(CN(C)c3nc(OC[C@@]45CCCN4C[C@H](F)C5)nc4c(F)c(-c5cccc6ccc(F)c(Cl)c56)ncc34)C2)nc(C)n1` [Example 273, (E)-1-(3-(((7-(8-chloro-7-fluoronaphthalen-1-yl)-8-fluoro-2-(((2R,7aS)-2-fluorotetrahydro-1H-pyrrolizin-7a(5H)-yl)methoxy)pyrido[4,3-d]pyrimidin-4-yl)(methyl)amino)methyl)azetidin-1-yl)-3-(2,6-dimethylpyrimidin-4-yl)prop-2-en-1-one], the IC50 is 100 to 500 nM.
Then `Cc1cc(/C=C/C(=O)N2CC(CN(C)c3nc(OC[C@@]45CCCN4C[C@H](F)C5)nc4c(F)c(-c5cccc6ccc(F)c(F)c56)ncc34)C2)nc(C)n1` [Example 274, (E)-1-(3-(((7-(7,8-difluoronaphthalen-1-yl)-8-fluoro-2-(((2R,7aS)-2-fluorotetrahydro-1H-pyrrolizin-7a(5H)-yl)methoxy)pyrido[4,3-d]pyrimidin-4-yl)(methyl)amino)methyl)azetidin-1-yl)-3-(2,6-dimethylpyrimidin-4-yl)prop-2-en-1-one], with 10 to 100 nM; and `Cc1cc(/C=C/C(=O)N2CC(CN(C)c3nc(OC[C@@]45CCCN4C[C@H](F)C5)nc4c(F)c(-c5cccc6cccc(Cl)c56)ncc34)C2)nc(C)n1` [Example 275, (E)-1-(3-(((7-(8-chloronaphthalen-1-yl)-8-fluoro-2-(((2R,7aS)-2-fluorohexahydro-1H-pyrrolizin-7a-yl)methoxy)pyrido[4,3-d]pyrimidin-4-yl)(methyl)amino)methyl)azetidin-1-yl)-3-(2,6-dimethylpyrimidin-4-yl)prop-2-en-1-one], with 100 to 500 nM; and `CN1CC(=CC(=O)N2CC[C@@H](N(C)c3nc(OC[C@@]45CCCN4C[C@H](F)C5)nc4c(F)c(-c5cccc6cccc(Cl)c56)ncc34)C2)C1` [Example 276, 1-((R)-3-((7-(8-chloronaphthalen-1-yl)-8-fluoro-2-(((2R,7aS)-2-fluorotetrahydro-1H-pyrrolizin-7a(5H)-yl)methoxy)pyrido[4,3-d]pyrimidin-4-yl)(methyl)amino)pyrrolidin-1-yl)-2-(1-methylazetidin-3-ylidene)ethan-1-one], with 10 to 100 nM.
Then `CCc1c(F)ccc2cccc(-c3ncc4c(N(C)[C@@H]5CCN(C(=O)/C=C/c6ccnc(C)n6)C5)nc(OC[C@@]56CCCN5C[C@H](F)C6)nc4c3F)c12` [Example 277, (E)-1-((R)-3-((7-(8-ethyl-7-fluoronaphthalen-1-yl)-8-fluoro-2-(((2R,7aS)-2-fluorohexahydro-1H-pyrrolizin-7a-yl)methoxy)pyrido[4,3-d]pyrimidin-4-yl)(methyl)amino)pyrrolidin-1-yl)-3-(2-methylpyrimidin-4-yl)prop-2-en-1-one], with 100 to 500 nM.
The same measure for `C#Cc1c(F)ccc2cccc(-c3ncc4c(N(C)[C@@H]5CCN(C(=O)/C=C/c6ccnc(C)n6)C5)nc(OC[C@@]56CCCN5C[C@H](F)C6)nc4c3F)c12` [Example 278, (E)-1-((R)-3-((7-(8-ethynyl-7-fluoronaphthalen-1-yl)-8-fluoro-2-(((2R,7aS)-2-fluorotetrahydro-1H-pyrrolizin-7a(5H)-yl)methoxy)pyrido[4,3-d]pyrimidin-4-yl)(methyl)amino)pyrrolidin-1-yl)-3-(2-methylpyrimidin-4-yl)prop-2-en-1-one]: 10 to 100 nM.
Consider `CCc1c(F)ccc2cccc(-c3ncc4c(N(C)[C@@H]5CCN(C(=O)/C=C/c6cc(C)nc(C)n6)C5)nc(OC[C@@]56CCCN5C[C@H](F)C6)nc4c3F)c12` [Example 279, (E)-3-(2,6-dimethylpyrimidin-4-yl)-1-((R)-3-((7-(8-ethyl-7-fluoronaphthalen-1-yl)-8-fluoro-2-(((2R,7aS)-2-fluorotetrahydro-1H-pyrrolizin-7a(5H)-yl)methoxy)pyrido[4,3-d]pyrimidin-4-yl)(methyl)amino)pyrrolidin-1-yl)prop-2-en-1-one], for which the half-maximal inhibitory concentration (IC50) was in the range of 100 to 500 nM.
Then `C#Cc1c(F)ccc2cccc(-c3ncc4c(N(C)CC5CN(C(=O)/C=C/c6cc(C)nc(C)n6)C5)nc(OC[C@@]56CCCN5C[C@H](F)C6)nc4c3F)c12` [Example 280, (E)-3-(2,6-dimethylpyrimidin-4-yl)-1-(3-(((7-(8-ethynyl-7-fluoronaphthalen-1-yl)-8-fluoro-2-(((2R,7aS)-2-fluorotetrahydro-1H-pyrrolizin-7a(5H)-yl)methoxy)pyrido[4,3-d]pyrimidin-4-yl)(methyl)amino)methyl)azetidin-1-yl)prop-2-en-1-one], with 10 to 100 nM; and `Cc1c(F)ccc2c(-c3ncc4c(N(C)[C@@H]5CCN(C(=O)/C=C/CN(C)C)C5)nc(OC[C@@]56CCCN5C[C@H](F)C6)nc4c3F)cccc12` [Example 281, (E)-4-(dimethylamino)-1-((R)-3-((8-fluoro-7-(6-fluoro-5-methylnaphthalen-1-yl)-2-(((2R,7aS)-2-fluorotetrahydro-1H-pyrrolizin-7a(5H)-yl)methoxy)pyrido[4,3-d]pyrimidin-4-yl)(methyl)amino)pyrrolidin-1-yl)but-2-en-1-one], with 100 to 500 nM.
Then `Cc1c(F)ccc2c(-c3ncc4c(N(C)[C@@H]5CCN(C(=O)/C=C/[C@H]6CCN6C)C5)nc(OC[C@@]56CCCN5C[C@H](F)C6)nc4c3F)cccc12` [Example 282, (E)-1-((R)-3-((8-fluoro-7-(6-fluoro-5-methylnaphthalen-1-yl)-2-(((2R,7aS)-2-fluorotetrahydro-1H-pyrrolizin-7a(5H)-yl)methoxy)pyrido[4,3-d]pyrimidin-4-yl)(methyl)amino)pyrrolidin-1-yl)-3-((R)-1-methylazetidin-2-yl)prop-2-en-1-one], with 100 to 500 nM.
The same measure for `CCc1c(F)ccc2cccc(-c3ncc4c(N(C)CC5CN(C(=O)/C=C/c6cc(C)nc(C)n6)C5)nc(OC[C@@]56CCCN5C[C@H](F)C6)nc4c3F)c12` [Example 283, (E)-3-(2,6-dimethylpyrimidin-4-yl)-1-(3-(((7-(8-ethyl-7-fluoronaphthalen-1-yl)-8-fluoro-2-(((2R,7aS)-2-fluorotetrahydro-1H-pyrrolizin-7a(5H)-yl)methoxy)pyrido[4,3-d]pyrimidin-4-yl)(methyl)amino)methyl)azetidin-1-yl)prop-2-en-1-one]: 100 to 500 nM; for `C=CC(=O)N1C[C@@H](N(C)c2nc(OC[C@@]34CCCN3C[C@H](F)C4)nc3c(F)c(-c4cccc5cccc(Cl)c45)ncc23)C(F)(F)C1` [Example 285, 1-((R)-4-((7-(8-chloronaphthalen-1-yl)-8-fluoro-2-(((2R,7aS)-2-fluorotetrahydro-1H-pyrrolizin-7a(5H)-yl)methoxy)pyrido[4,3-d]pyrimidin-4-yl)(methyl)amino)-3,3-difluoropyrrolidin-1-yl)prop-2-en-1-one]: over 500 nM.
Take `C#Cc1c(F)ccc2cccc(-c3ncc4c(N(C)[C@@H]5CCN(C(=O)/C=C/CN6CC[C@H](OC)C6)C5)nc(OC[C@@]56CCCN5C[C@H](F)C6)nc4c3F)c12` [Example 286, (E)-1-((R)-3-((7-(8-ethynyl-7-fluoronaphthalen-1-yl)-8-fluoro-2-(((2R,7aS)-2-fluorotetrahydro-1H-pyrrolizin-7a(5H)-yl)methoxy)pyrido[4,3-d]pyrimidin-4-yl)(methyl)amino)pyrrolidin-1-yl)-4-((S)-3-methoxypyrrolidin-1-yl)but-2-en-1-one]: the concentration for half-maximal inhibition (IC50) lay in the range of 10 to 100 nM.
Then `C#Cc1c(F)ccc2cccc(-c3ncc4c(N(C)[C@@H]5CCN(C(=O)/C=C/CN6CC[C@@H](OC)C6)C5)nc(OC[C@@]56CCCN5C[C@H](F)C6)nc4c3F)c12` [Example 287, (E)-1-((R)-3-((7-(8-ethynyl-7-fluoronaphthalen-1-yl)-8-fluoro-2-(((2R,7aS)-2-fluorotetrahydro-1H-pyrrolizin-7a(5H)-yl)methoxy)pyrido[4,3-d]pyrimidin-4-yl)(methyl)amino)pyrrolidin-1-yl)-4-((R)-3-methoxypyrrolidin-1-yl)but-2-en-1-one], with 10 to 100 nM.
